{"source": "patent US9580411B2", "about": "“Substituted sulfonamide compounds” (Hoffmann-La Roche Inc., priority 2012, dated 2017)", "molecular_target": "hTRPA1 (Homo sapiens (Human), UniProt O75762)", "sequence (O75762 whole entry)": "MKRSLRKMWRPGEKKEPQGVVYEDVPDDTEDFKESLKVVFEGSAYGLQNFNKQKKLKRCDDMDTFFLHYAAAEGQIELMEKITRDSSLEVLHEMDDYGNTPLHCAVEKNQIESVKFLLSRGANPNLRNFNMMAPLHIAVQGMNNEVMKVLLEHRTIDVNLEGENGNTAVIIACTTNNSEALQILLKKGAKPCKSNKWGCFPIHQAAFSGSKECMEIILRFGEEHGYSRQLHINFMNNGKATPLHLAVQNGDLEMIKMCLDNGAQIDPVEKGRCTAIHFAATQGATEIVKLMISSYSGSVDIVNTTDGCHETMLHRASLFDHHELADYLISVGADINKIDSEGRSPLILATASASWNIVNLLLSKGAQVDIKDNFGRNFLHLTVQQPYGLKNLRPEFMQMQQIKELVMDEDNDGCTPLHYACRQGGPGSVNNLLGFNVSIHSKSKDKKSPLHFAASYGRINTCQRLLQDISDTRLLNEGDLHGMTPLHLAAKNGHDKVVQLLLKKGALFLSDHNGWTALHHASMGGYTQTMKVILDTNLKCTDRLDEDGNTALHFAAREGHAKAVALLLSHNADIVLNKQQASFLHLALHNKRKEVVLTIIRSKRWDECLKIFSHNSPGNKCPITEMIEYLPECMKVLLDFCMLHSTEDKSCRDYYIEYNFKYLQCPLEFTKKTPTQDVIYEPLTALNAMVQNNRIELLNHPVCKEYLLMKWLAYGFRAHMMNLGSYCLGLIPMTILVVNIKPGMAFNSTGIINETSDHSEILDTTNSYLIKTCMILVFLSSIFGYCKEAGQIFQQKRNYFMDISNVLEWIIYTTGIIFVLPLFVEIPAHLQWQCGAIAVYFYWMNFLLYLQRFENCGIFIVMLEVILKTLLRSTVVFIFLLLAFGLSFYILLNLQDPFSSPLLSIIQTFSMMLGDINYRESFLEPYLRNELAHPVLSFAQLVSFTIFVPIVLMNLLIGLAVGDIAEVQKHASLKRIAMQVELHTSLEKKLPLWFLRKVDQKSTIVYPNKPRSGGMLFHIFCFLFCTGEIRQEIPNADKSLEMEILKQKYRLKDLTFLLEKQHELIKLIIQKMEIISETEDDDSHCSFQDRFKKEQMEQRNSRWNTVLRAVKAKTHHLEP", "experiment": "Dose response calcium flux assay (FLIPR), ChanTest hTRPA1-CHO stably transfected cell line", "format": "cell-based", "settings": "CHO-K1 Tet-On human TRPA1 cells, cinnamaldehyde agonist (final 100 uM)", "description": "IC50 Determinations of Exemplified Compounds Dose Response Assay: Chan Test hTRPA1-CHO Stably Transfected Cell Line\nCHO-K1 Tet-On_HOMSA_TRPA1_Clone_20\nChinese Hamster Ovary cells, inducible expression\n• Ham's F-12 with 10% tetracycline-free FBS • 1× penicillin-streptomycin • 1× glutamax • 0.01 mg/ml Blasticidin • 0.40 mg/ml Zeocin • The cell line doubling rate was ˜15 hours. […] Experiments were run at 24 hours post induction. Plating Conditions CHOK1/TRPA1 Cells: • Harvested cells with 0.025% trypsin/EDTA. • Resuspended cells in growth media without selection antibiotics. • Measured cell density and diluted to 2.4×10^5 cells/ml in media containing 1 ug/ml Doxycycline Plate 25 ul/well into 384 well black/clear tissue culture-treated plates. • Incubated overnight at 37° C. Calcium Flux Assay: Day of Assay: Reagents: • Replacement Buffer: Hank's Balanced Salt Solution, 20 mM HEPES along with 0.005% BSA and 2× Probenecid • Dye Loading Buffer: Cal-3 NW Calcium dye was prepared by dissolving the contents of one vial with […] Hank's Balanced Salt Solution containing 20 mM HEPES. • Control compounds for CHOK1/TRPA1 cells: AP-18, stock 10 mM, prepare 3.5× compound dilution in a Compound Buffer (HBSS/20 mM HEPES/0.005% BSA)—final concentration 10 uM. • Preparation of Cinnamaldehyde (agonist addition): FW=132.16 • Specific gravity=1.046 gm/cc • 1.32 gm/1.046 gm/cc=1.26 ml of stock • Add 1.74 ml DMSO=3.3 M stock • Working solution 4.5× (final 100 uM in Compound Buffer: HBSS/20 mM HEPES/0.005% BSA) • Compounds dilutions were prepared from 5 or 10 mM stock (100% DMSO): • Adjustments of volumes and concentrations were made at time of titration to reflect desired final assay concentrations. • Compounds were tested at either 20 μM three folds dilution 11 steps out or 30 μM two folds dilution 11 steps out. • 3 μl of diluted compound were transferred into Weidmann 384-well plate in duplicates side-by-side. • Compound plates were resuspended with 100 ul of HBSS/20 mM HEPES/0.005% BSA buffer (Compound Buffer): • column 1A-H: buffer/DMSO (bk) • column 2A-H: AP-18 (control antagonist for CHOK1 TRPA1 cells) • column 1I-P: ATP (control for CHOK1 teton cells) • column 2 I-P: 2APB (control antagonist for CHOK1/TRPM8 cells). Growth media was removed from the cell plates (20 ul) and 20 ul of the Replacement Buffer was added followed by addition of 25 ul of diluted dye. All three steps were performed using a Plate Washer BioTek 407. The plates were then incubated for 30′ at RT.\nAfter incubation, both the cell and compound plates were brought to the FLIPR and 20 ul of the diluted compounds/antagonist/bk were transferred to the cell plates by the FLIPR. Plates were then incubated for 30′ at room temperature. After 30′ incubation, plates were returned to the FLIPR and 20 ul of 4.5× Cinnamaldehyde was added to the cell plates. During the compound addition as well as agonist addition, fluorescence readings were taken simultaneously from all 384 wells of the cell plate every 1.5 seconds. Five readings were taken to establish a stable baseline, then 20 ul of sample was rapidly (30 ul/sec) and simultaneously added to each well of the cell plate. The fluorescence was continuously monitored before, during and after sample/agonist addition for a total elapsed time of 100 seconds (compound addition) and 120 seconds (agonist addition). Responses (increase in peak fluorescence) in each well following agonist addition was determined. The initial fluorescence reading from each well, prior to ligand stimulation, was used a zero baseline value for the data from that well.", "note": "pIC50: −log10 of the molar value."}
{"smiles": "CN(CC(=O)NCc1cc(-c2ccc(C(F)(F)F)cc2)ncn1)S(=O)(=O)c1cccs1", "note": "[Example 26, 2-[methyl-(thiophene-2-sulfonyl)-amino]-N-[6-(4-trifluoromethyl-phenyl)-pyrimidin-4-ylmethyl]-acetamide]", "values": [{"measurement": "pIC50", "value": 6.47}]}
{"smiles": "CC(C)N(CC(=O)NCc1cc(-c2ccc(C(F)(F)F)cc2)ncn1)S(=O)(=O)c1ccc(F)cc1", "note": "[Example 27, 2-[(4-Fluoro-benzenesulfonyl)-isopropyl-amino]-N-[6-(4-trifluoromethyl-phenyl)-pyrimidin-4-ylmethyl]-acetamide]", "values": [{"measurement": "pIC50", "value": 7.28}]}
{"smiles": "CCN(CC(=O)NCc1cc(-c2ccc(C(F)(F)F)cc2)ncn1)S(=O)(=O)c1ccc(F)cc1", "note": "[Example 28, 2-[Ethyl-(4-fluoro-benzenesulfonyl)-amino]-N-[6-(4-trifluoromethyl-phenyl)-pyrimidin-4-ylmethyl]-acetamide]", "values": [{"measurement": "pIC50", "value": 7.48}]}
{"smiles": "COCCN(CC(=O)NCc1cc(-c2ccc(C(F)(F)F)cc2)ncn1)S(=O)(=O)c1ccc(F)cc1", "note": "[Example 29, 2-[(4-Fluoro-benzenesulfonyl)-(2-methoxy-ethyl)-amino]-N-[6-(4-trifluoromethyl-phenyl)-pyrimidin-4-ylmethyl]-acetamide]", "values": [{"measurement": "pIC50", "value": 6.33}]}
{"smiles": "O=C(CN(CCO)S(=O)(=O)c1ccc(F)cc1)NCc1cc(-c2ccc(C(F)(F)F)cc2)ncn1", "note": "[Example 30, 2-[(4-fluoro-benzenesulfonyl)-(2-hydroxy-ethyl)-amino]-N-[6-(4-trifluoromethyl-phenyl)-pyrimidin-4-ylmethyl]acetamide]", "values": [{"measurement": "pIC50", "value": 6.66}]}
{"smiles": "CC(C)(C)N(CC(=O)NCc1cc(-c2ccc(C(F)(F)F)cc2)ncn1)S(=O)(=O)c1ccc(F)cc1", "note": "[Example 31, 2-[tert-Butyl-(4-fluoro-benzenesulfonyl)-amino]-N-[6-(4-trifluoromethyl-phenyl)-pyrimidin-4-ylmethyl]-acetamide]", "values": [{"measurement": "pIC50", "value": 6.42}]}
{"smiles": "CC(C)N([C@@H](C)C(=O)NCc1cc(-c2ccc(C(F)(F)F)cc2)ncn1)S(=O)(=O)c1ccc(F)cc1", "note": "[Example 32, (S)-2-[(4-Fluoro-benzenesulfonyl)-isopropyl-amino]-N-[6-(4-trifluoromethyl-phenyl)-pyrimidin-4-ylmethyl]-propionamide]", "values": [{"measurement": "pIC50", "value": 6.72}]}
{"smiles": "CC(C)N(CC(=O)NCc1ccc(-c2ccc(C(F)(F)F)cc2)cc1)S(=O)(=O)c1ccc(F)cc1", "note": "[Example 33, 2-[(4-Fluoro-benzenesulfonyl)-isopropyl-amino]-N-(4′-trifluoromethyl-biphenyl-4-ylmethyl)-acetamide]", "values": [{"measurement": "pIC50", "value": 5.66}]}
{"smiles": "CC(C)N(CC(=O)NCc1ccc(-c2cccc(C(F)(F)F)c2)cc1)S(=O)(=O)c1ccc(F)cc1", "note": "[Example 34, 2-[(4-Fluoro-benzenesulfonyl)-isopropyl-amino]-N-(3′-trifluoromethyl-biphenyl-4-ylmethyl)-acetamide]", "values": [{"measurement": "pIC50", "value": 5.44}]}
{"smiles": "CC(C)N(CC(=O)NCc1ccc(F)c(-c2ccc(C(F)(F)F)cc2)c1)S(=O)(=O)c1ccc(F)cc1", "note": "[Example 35, 2-[(4-Fluoro-benzenesulfonyl)-isopropyl-amino]-N-(6-fluoro-4′-trifluoromethyl-biphenyl-3-ylmethyl)-acetamide]", "values": [{"measurement": "pIC50", "value": 7.27}]}
{"smiles": "CC(C)N(CC(=O)NCc1cc(F)cc(-c2ccc(C(F)(F)F)cc2)c1)S(=O)(=O)c1ccc(F)cc1", "note": "[Example 36, 2-[(4-Fluoro-benzenesulfonyl)-isopropyl-amino]-N-(5-fluoro-4′-trifluoromethyl-biphenyl-3-ylmethyl)-acetamide]", "values": [{"measurement": "pIC50", "value": 7.92}]}
{"smiles": "CC(C)N(CC(=O)NCc1cc(-c2ccc(C(F)(F)F)cc2)ccc1F)S(=O)(=O)c1ccc(F)cc1", "note": "[Example 37, 2-[(4-Fluoro-benzenesulfonyl)-isopropyl-amino]-N-(4-fluoro-4′-trifluoromethyl-biphenyl-3-ylmethyl)-acetamide]", "values": [{"measurement": "pIC50", "value": 7.85}]}
{"smiles": "C[C@H](C(=O)NCc1cc(-c2ccc(C(F)(F)F)cc2)ncn1)N(C)S(=O)(=O)c1ccc(F)cc1", "note": "[Example 38, (R)-2-[(4-Fluoro-benzenesulfonyl)-methyl-amino]-N-[6-(4-trifluoromethyl-phenyl)-pyrimidin-4-ylmethyl]-propionamide]", "values": [{"measurement": "pIC50", "value": 7.19}]}
{"smiles": "CC(C)N(CC(=O)NCc1cccc(-c2ccc(C(F)(F)F)cc2)c1)S(=O)(=O)c1ccc(F)cc1", "note": "[Example 39, 2-[(4-Fluoro-benzenesulfonyl)-isopropyl-amino]-N-(4′-trifluoromethyl-biphenyl-3-ylmethyl)-acetamide]", "values": [{"measurement": "pIC50", "value": 7.29}]}
{"smiles": "CC(C)N(CC(=O)NCc1cccc(-c2ccc(C(F)(F)F)cn2)c1)S(=O)(=O)c1ccc(F)cc1", "note": "[Example 40, 2-[(4-Fluoro-benzenesulfonyl)-isopropyl-amino]-N-[3-(5-trifluoromethyl-pyridin-2-yl)-benzyl]-acetamide]", "values": [{"measurement": "pIC50", "value": 7.17}]}
{"smiles": "CN(CC(=O)NCc1cccc(-c2ccc(C(F)(F)F)cn2)c1)S(=O)(=O)c1ccc(F)cc1", "note": "[Example 41, 2-[(4-Fluoro-benzenesulfonyl)-methyl-amino]-N-[3-(5-trifluoromethyl-pyridin-2-yl)-benzyl]-acetamide]", "values": [{"measurement": "pIC50", "value": 6.54}]}
{"smiles": "CCN(CC(=O)NCc1cccc(-c2ccc(C(F)(F)F)cn2)c1)S(=O)(=O)c1ccc(F)cc1", "note": "[Example 42, 2-[Ethyl-(4-fluoro-benzenesulfonyl)-amino]-N-[3-(5-trifluoromethyl-pyridin-2-yl)-benzyl]-acetamide]", "values": [{"measurement": "pIC50", "value": 7.08}]}
{"smiles": "COc1cc(CNC(=O)CN(C)S(=O)(=O)c2ccc(F)cc2)cc(-c2ccc(C(F)(F)F)cc2)c1", "note": "[Example 43, 2-[(4-Fluoro-benzenesulfonyl)-methyl-amino]-N-(5-methoxy-4′-trifluoromethyl-biphenyl-3-ylmethyl)-acetamide]", "values": [{"measurement": "pIC50", "value": 6.42}]}
{"smiles": "CCN(CC(=O)NCc1cc(OC)cc(-c2ccc(C(F)(F)F)cc2)c1)S(=O)(=O)c1ccc(F)cc1", "note": "[Example 44, 2-[Ethyl-(4-fluoro-benzenesulfonyl)-amino]-N-(5-methoxy-4′-trifluoromethyl-biphenyl-3-ylmethyl)-acetamide]", "values": [{"measurement": "pIC50", "value": 7.06}]}
{"smiles": "COc1cc(CNC(=O)CN(C(C)C)S(=O)(=O)c2ccc(F)cc2)cc(-c2ccc(C(F)(F)F)cc2)c1", "note": "[Example 45, 2-[(4-Fluoro-benzenesulfonyl)-isopropyl-amino]-N-(5-methoxy-4′-trifluoromethyl-biphenyl-3-ylmethyl)-acetamide]", "values": [{"measurement": "pIC50", "value": 7.32}]}
{"smiles": "CCN(CC(=O)NCc1ccc(OC)c(-c2ccc(C(F)(F)F)cc2)c1)S(=O)(=O)c1ccc(F)cc1", "note": "[Example 46, 2-[Ethyl-(4-fluoro-benzenesulfonyl)-amino]-N-(6-methoxy-4′-trifluoromethyl-biphenyl-3-ylmethyl)-acetamide]", "values": [{"measurement": "pIC50", "value": 6.89}]}
{"smiles": "COc1ccc(CNC(=O)CN(C(C)C)S(=O)(=O)c2ccc(F)cc2)cc1-c1ccc(C(F)(F)F)cc1", "note": "[Example 47, 2-[(4-Fluoro-benzenesulfonyl)-isopropyl-amino]-N-(6-methoxy-4′-trifluoromethyl-biphenyl-3-ylmethyl)-acetamide]", "values": [{"measurement": "pIC50", "value": 7.39}]}
{"smiles": "CC(C)N(CC(=O)NCc1cccc(-c2ccc(C(F)(F)F)cc2)c1)S(=O)(=O)c1cccc(F)c1", "note": "[Example 48, 2-[(3-Fluoro-benzenesulfonyl)-isopropyl-amino]-N-(4′-trifluoromethyl-biphenyl-3-ylmethyl)-acetamide]", "values": [{"measurement": "pIC50", "value": 7.47}]}
{"smiles": "CC(C)N(CC(=O)NCc1cc(-c2ccc(C(F)(F)F)cc2)ncn1)S(=O)(=O)c1cccc(F)c1", "note": "[Example 49, 2-[(3-Fluoro-benzenesulfonyl)-isopropyl-amino]-N-[6-(4-trifluoromethyl-phenyl)-pyrimidin-4-ylmethyl]-acetamide]", "values": [{"measurement": "pIC50", "value": 7.15}]}
{"smiles": "CC(C)N(CC(=O)NCc1cccc(-c2ccc(C(F)(F)F)cn2)c1)S(=O)(=O)c1cccc(F)c1", "note": "[Example 50, 2-[(3-Fluoro-benzenesulfonyl)-isopropyl-amino]-N-[3-(5-trifluoromethyl-pyridin-2-yl)-benzyl]-acetamide]", "values": [{"measurement": "pIC50", "value": 7.10}]}
